As a reminder, the melting point is the temperature of the solid-liquid transition.

SMILES strings stand for the structures. Structures can show the parent of a compound that is named as a salt.

Experimental findings from patent publication US20040147561A1, “Pyrid-2-one derivatives and methods of use” (priority 2002, published 2004) are described below.

For `CCOC(=O)c1cc(-c2csc(-c3ccnc(NCc4ccco4)c3)n2)c(=O)[nH]c1C` (as salt: HCl) [Example 53, Ethyl 5-(2-(2-[(fur-2-ylmethyl)-amino]-pyridin-4-yl}-thiazol-4-yl)-2-methyl-6-oxo-1,6-dihydro-3-pyridinecarboxylate], the melting point is 260 °C (dec.).
As to `CCOC(=O)c1cc(-c2csc(-c3ccnc(NCc4ccc(F)cc4)c3)n2)c(=O)[nH]c1C` (as salt: HCl) [Example 55, Ethyl 5-{2-[2-(4-fluoro-benzylamino)-pyridin-4-yl]-thiazol-4-yl}-2-methyl-6-oxo-1,6-dihydro-3-pyridinecarboxylate], the melting point is 280 °C (dec.).
As to `CCCCNc1cc(-c2nc(-c3cc(C(=O)OCC)c(C)[nH]c3=O)cs2)ccn1` (as salt: HCl) [Example 56, Ethyl 5-[2-(2-butylamino-pyridin-4-yl)-thiazol-4-yl]-2-methyl-6-oxo-1,6-dihydro-3-pyridinecarboxylate], the melting point was 230 °C (dec.).
On to `CCOC(=O)c1cc(-c2csc(-c3ccnc(NCC(N)=O)c3)n2)c(=O)[nH]c1C` (as salt: HCl) [Example 57, Ethyl 5-{2-[2-(carbamoylmethyl-amino)-pyridin-4-yl]-thiazol-4-yl}-2-methyl-6-oxo-1,6-dihydro-3-pyridinecarboxylate], for which the melting point is 270 °C (dec.).
Turning to `CCOC(=O)c1cc(-c2csc(-c3ccnc(NCCNC(C)=O)c3)n2)c(=O)[nH]c1C` (as salt: HCl) [Example 58], the melting point is 270 °C (dec.).
`Cc1[nH]c(=O)c(-c2csc(-c3ccnc(NCC4CC4)c3)n2)cc1C(=O)NCC1CC1` (as salt: HCl) [Example 60, N-(Cyclopropylmethyl)-5-(2-(2-((cyclopropylmethyl)amino)-4-pyridinyl)-1,3-thiazol-4-yl)-2-methyl-6-oxo-1,6-dihydro-3-pyridinecarboxamide]: the melting point was greater than 260 °C.
In the case of `CCOC(=O)c1cc(-c2csc(-c3ccnc(NCC4CC4)c3)n2)c(=O)[nH]c1C` (as salt: HCl) [Example 61, Ethyl 5-{2-[2-(cyclopropylmethyl-amino)-pyridin-4-yl]-thiazol-4-yl}-2-methyl-6-oxo-1,6-dihydro-3-pyridinecarboxylate], the melting point was greater than 260 °C.
The value for `CCOC(=O)c1cc(-c2csc(-c3ccnc(NCC4CCCC4)c3)n2)c(=O)[nH]c1C` (as salt: HCl) [Example 62, Ethyl 5-{2-[2-(Cyclopentyl)methylamino-pyridin-4-yl]-thiazol-4-yl}-2-methyl-6-oxo-1,6-dihydro-3-pyridinecarboxylate] was 260 °C (dec.); that for `COc1ccc(CNC(=O)c2cc(-c3csc(-c4ccnc(NCc5ccc(OC)cc5)c4)n3)c(=O)[nH]c2C)cc1` (as salt: HCl) [Example 63, 5-{2-[2-(4-Methoxy-benzyamino)-pyridin-4-yl]-thiazol-4-yl}-2-methyl-6-oxo-1,6-dihydropyridine-3-carboxylic acid 4-methoxy-benzylamide] was 280 °C (dec.).
Compound `CCOC(=O)c1cc(-c2csc(-c3ccnc(NC)c3)n2)c(=O)[nH]c1C(C)C` (as salt: HCl) [Example 94, Ethyl 5-[2-(methylamino-pyridin-4-yl)-thiazol-4-yl]-2-isopropyl-6-oxo-1,6-dihydro-3-pyridinecarboxylate] had a melting point greater than 230 °C.
The value for `CCOC(=O)c1cc(-c2csc(-c3ccnc(N(C)C)c3)n2)c(=O)[nH]c1C(C)C` (as salt: hydrochloride) [Example 93, Ethyl 5-[2-(dimethylamino-pyridin-4-yl)-thiazol-4-yl]-2-isopropyl-6-oxo-1,6-dihydro-3-pyridinecarboxylate] was greater than 230 °C.
With `CCOC(=O)c1cc(-c2csc(N(C)S(=O)(=O)c3ccccc3)n2)c(=O)[nH]c1C` (as salt: salt) [Example 68, Ethyl 2-methyl-5-{2-[methyl(phenylsulfonyl)amino](1,3-thiazol-4-yl)}-6-oxo-1,6-dihydro-3-pyridinecarboxylate], the melting point was in the range of 231 to 234 °C.
Take `O=c1[nH]cc(Oc2ccccc2)cc1-c1csc(-c2ccncc2)n1` (as salt: salt) [Example 71, 5-Phenoxy-3-(2-(4-pyridinyl)-1,3-thiazol-4-yl)-2(1H)-pyridinone]: the melting point fell in the range of 243 to 245 °C.
With `CCOC(=O)c1cc(-c2csc(CS(=O)(=O)c3ccc(Cl)cc3)n2)c(=O)[nH]c1C` [Example 25], the melting point is 300 °C (dec.).
Regarding `CCOC(=O)c1cc(-c2csc(CS(=O)(=O)Cc3ccc(F)cc3)n2)c(=O)[nH]c1C` [Example 26, Ethyl 5-[2-({[(4-fluorophenyl)methyl]sulfonyl}mthyl)(1,3-thiazol-4-yl)]-2-methyl-6-oxo-1,6-dihydro-3-pyridinecarboxylate], the melting point was 300 °C (dec.).
As for `CCOC(=O)c1cc(-c2csc(-c3cccs3)n2)c(=O)[nH]c1C` [Example 27], the melting point is 230 °C (dec.).
For the compound `CCOC(=O)c1cc(-c2csc(CSc3ccccc3)n2)c(=O)[nH]c1C` [Example 28, Ethyl 2-methyl-6-oxo-5-{2-(phenylthiomethyl)(1,3-thiazol-4-yl)}-1,6-dihydro-3-pyridinecarboxylate], the melting point was 260 °C (dec.).
For `CCOC(=O)c1cc(-c2csc(-c3ccnc(CC)c3)n2)c(=O)[nH]c1C` [Example 29], the melting point was 270 °C (dec.).
For the compound `CCOC(=O)c1cc(-c2csc(CS(=O)(=O)Cc3cccc(C(F)(F)F)c3)n2)c(=O)[nH]c1C` [Example 30], the melting point was 300 °C (dec.).
Consider `CCOC(=O)c1cc(-c2csc(-c3ccsc3)n2)c(=O)[nH]c1C` [Example 31, Ethyl 2-methyl-6-oxo-5-{2-[3-thienyl](1,3-thiazol-4-yl)}-1,6-dihydro-3-pyridinecarboxylate], for which the melting point was 230 °C (dec.).
On to `CCOC(=O)c1cc(-c2csc(-c3ccc4c(c3)OCO4)n2)c(=O)[nH]c1C` [Example 32, Ethyl 5-(2-(2H-benzo[d]1,3-dioxolan-5-yl)(1,3-thiazol-4-yl))-2-m thyl-6-oxo-1,6-dihydro-3-pyridinecarboxylate], for which the melting point was 230 °C (dec.).
`CCOC(=O)c1cc(-c2csc(-c3ccccc3)n2)c(=O)[nH]c1C` [Example 33, Ethyl 2-methyl-6-oxo-5-{2-phenyl(1,3-thiazol-4-yl)}-1,6-dihydro-3-pyridinecarboxylate]: the melting point was 260 °C (dec.).
Regarding `CCOC(=O)c1cc(-c2csc(-c3ccc(F)cc3)n2)c(=O)[nH]c1C` [Example 34, Ethyl 2-methyl-6-oxo-5-{2-[4-fluorophenyl](1,3-thiazol-4-yl)}-1,6-dihydro-3-pyridinecarboxylate], the melting point was 260 °C (dec.).
Take `CCOC(=O)c1cc(-c2csc(-c3c(Cl)cccc3Cl)n2)c(=O)[nH]c1C` [Example 35, Ethyl 5-[2-(2,6-dichlorophenyl)(1,3-thiazol-4-yl)]2-methyl-6-oxo-1,6-dihydro-3-pyridinecarboxylate]: the melting point is 260 °C (dec.).
As to `CCOC(=O)c1cc(-c2csc(-c3csc(C)n3)n2)c(=O)[nH]c1C` [Example 36], the melting point is 195 °C (dec.).
The value for `CCOC(=O)c1cc(-c2csc(CS(=O)(=O)Cc3ccco3)n2)c(=O)[nH]c1C` [Example 37, Ethyl 5-(2-{[(2-furylmethyl)sulfonyl]methyl}(1,3-thiazol-4-yl))-2-methyl-6-oxo-1,6-dihydro-3-pyridinecarboxylate] was 290 °C (dec.); that for `CCOC(=O)c1cc(-c2csc(CS(=O)(=O)C(C)(C)C)n2)c(=O)[nH]c1C` [Example 38, Ethyl 5-(2-{[(tert-butyl)sulfonyl]methyl}(1,3-thiazol-4-yl))-2-methyl-6-oxo-1,6-dihydro-3-pyridinecarboxylate] was 250 °C (dec.); that for `CCOC(=O)c1cc(-c2csc(-c3cccnc3)n2)c(=O)[nH]c1C` [Example 39] was 230 °C (dec.).
Consider `CCOC(=O)c1cc(-c2csc(-c3ccnc(Cl)c3)n2)c(=O)[nH]c1C` [Example 40], for which the melting point is 250 °C (dec.).
On to `CCOC(=O)c1cc(-c2csc(-c3ccc(OC)cc3)n2)c(=O)[nH]c1C` [Example 41, Ethyl 2-methyl-6-oxo-5-{2-[4-methoxyphenyl](1,3-thiazol-4-yl)}-1,6-dihydro-3-pyridinecarboxylate], for which the melting point was 240 °C (dec.).
As to `CCOC(=O)c1cc(-c2csc(-c3c(Cl)cncc3Cl)n2)c(=O)[nH]c1C` [Example 42, Ethyl 5-[2-(3,5-dichloro-pyridyl-4-yl)-thiazol-4-yl]-2-methyl-6-oxo-1,6-dihydro-3-pyridinecarboxylate], the melting point is 290 °C (dec.).
In the case of `CCOC(=O)c1cc(-c2csc(CS(C)(=O)=O)n2)c(=O)[nH]c1C` [Example 43, Ethyl 5-(2-{[(methyl)sulfonyl]methyl}(1,3-thiazol-4-yl))-2-methyl-6-oxo-1,6-dihydro-3-pyridinecarboxylate], the melting point is 230 °C (dec.).
As for `CCOC(=O)c1cc(-c2csc(-c3sccc3CS(=O)(=O)c3ccc(Cl)cc3)n2)c(=O)[nH]c1C` [Example 44], the melting point is 300 °C (dec.).
For `CCOC(=O)c1cc(-c2csc(-c3ccnc(N4CCCCC4)c3)n2)c(=O)[nH]c1C` [Example 45, Ethyl 2-methyl-6-oxo-5-(2-(2-(1-piperidinyl)-4-pyridinyl)-1,3-thiazol-4-yl)-1,6-dihydro-3-pyridinecarboxylate], the melting point is 260 °C (dec.).
As to `CCOC(=O)c1cc(-c2csc(-c3ccnc(NCC(C)C)c3)n2)c(=O)[nH]c1C` [Example 46, Ethyl 2-methyl-5-(2-(2-((2-methylpropyl)amino)-4-pyridinyl)-1,3-thiazol-4-yl)-6-oxo-1,6-dihydro-3-pyridinecarboxylate], the melting point was 260 °C (dec.).
The value for `CCOC(=O)c1cc(-c2csc(-c3ccnc(NCc4ccccc4)c3)n2)c(=O)[nH]c1C` [Example 48, Ethyl 2-methyl-6-oxo-5-(2-(2-((phenylmethyl)amino)-4-pyridinyl)-1,3-thiazol-4-yl)-1,6-dihydro-3-pyridinecarboxylate] was 290 °C (dec.).
